Experimental data taken from ChEMBL document CHEMBL1201862, “PubChem BioAssay data set” (2004).
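Exposure lasted 48 hours, with cells grown in 96-well plates and compounds tested at five concentrations. GI50: concentration for 50% inhibition of growth.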 Activity calls are given as the source filed them. No stated cut-off is given here; in the data, active = GI50 up to about 1.1 µM and inactive = higher.

How the values were obtained:
Assay in all cases: growth of human tumour cells (NCI), 48 h
SK-OV-3 = system: SK-OV-3
SK-MEL-5 = system: SK-MEL-5
U-251 = system: U-251
DU-145 = system: DU-145
OVCAR-8 = system: OVCAR-8
MDA-MB-435 = system: MDA-MB-435
PC-3 = system: PC-3
NCI/ADR-RES = system: NCI/ADR-RES
UACC-62 = system: UACC-62
SNB-75 = system: SNB-75
A498 = system: A498
SN12C = system: SN12C
SR = system: SR
HOP-62 = system: HOP-62
HT-29 = system: HT-29
SNB-19 = system: SNB-19
HL-60 = system: HL-60
COLO 205 = system: COLO 205
HCT-15 = system: HCT-15
T47D = system: T47D
NCI-H226 = system: NCI-H226
TK-10 = system: TK-10
SK-MEL-2 = system: SK-MEL-2
Hs-578T = system: Hs-578T
NCI-H522 = system: NCI-H522
CAKI-1 = system: CAKI-1
MCF7 = system: MCF7
UACC-257 = system: UACC-257
MDA-N = system: MDA-N
KM12 = system: KM12
SF-539 = system: SF-539
M14 = system: M14
IGROV-1 = system: IGROV-1
A549 = system: A549
OVCAR-4 = system: OVCAR-4
NCI-H23 = system: NCI-H23
HCT-116 = system: HCT-116
786-0 = system: 786-0
OVCAR-5 = system: OVCAR-5
K562 = system: K562
ACHN = system: ACHN
RPMI-8226 = system: RPMI-8226
NCI-H460 = system: NCI-H460
SW-620 = system: SW-620
BT-549 = system: BT-549
SF-268 = system: SF-268
MOLT-4 = system: MOLT-4
CCRF-CEM = system: CCRF-CEM
EKVX = system: EKVX
UO-31 = system: UO-31
Malme-3M = system: Malme-3M
SK-MEL-28 = system: SK-MEL-28
HCC 2998 = system: HCC 2998
OVCAR-3 = system: OVCAR-3
MDA-MB-231 = system: MDA-MB-231
LOX IMVI = system: LOX IMVI
SF-295 = system: SF-295

Measured: GI50

Cc1ccc(-n2cnc(C(=N)C#N)c2N)cc1
> 100 µM: HCT-15
inactive: SK-OV-3 > 100 µM | SK-MEL-5 > 100 µM | U-251 > 100 µM | DU-145 > 100 µM | OVCAR-8 > 100 µM | MDA-MB-435 > 100 µM | PC-3 > 100 µM | NCI/ADR-RES > 100 µM | UACC-62 > 100 µM | SNB-75 > 100 µM | A498 > 100 µM | SN12C > 100 µM | SR > 100 µM | HOP-62 > 100 µM | HT-29 > 100 µM | SNB-19 > 100 µM | HL-60 > 100 µM | COLO 205 > 100 µM | T47D > 100 µM | NCI-H226 > 100 µM | TK-10 > 100 µM | SK-MEL-2 > 100 µM | Hs-578T > 100 µM | NCI-H522 > 100 µM | CAKI-1 > 100 µM | MCF7 > 100 µM | UACC-257 > 100 µM | MDA-N > 100 µM | KM12 > 100 µM | SF-539 > 100 µM | M14 > 100 µM | IGROV-1 > 100 µM | A549 > 100 µM | OVCAR-4 > 100 µM | NCI-H23 > 100 µM | HCT-116 > 100 µM | 786-0 > 100 µM | OVCAR-5 > 100 µM | K562 > 100 µM | ACHN > 100 µM | RPMI-8226 > 100 µM | NCI-H460 > 100 µM | SW-620 > 100 µM | BT-549 > 100 µM | SF-268 > 100 µM | MOLT-4 > 100 µM | CCRF-CEM > 100 µM | EKVX > 100 µM | UO-31 > 100 µM | Malme-3M > 100 µM | SK-MEL-28 > 100 µM | HCC 2998 > 100 µM | OVCAR-3 > 100 µM | MDA-MB-231 > 100 µM | LOX IMVI > 100 µM | SF-295 > 100 µM

O=c1[nH]nc(Cc2ccccc2)n1Nc1ccccc1
> 100 µM: HCT-15
inactive: SK-MEL-5 > 100 µM | U-251 > 100 µM | DU-145 > 100 µM | OVCAR-8 > 100 µM | MDA-MB-435 > 100 µM | PC-3 > 100 µM | NCI/ADR-RES > 100 µM | UACC-62 > 100 µM | SNB-75 17.2 µM | A498 > 100 µM | SN12C > 100 µM | SR > 100 µM | HOP-62 > 100 µM | HT-29 > 100 µM | HL-60 > 100 µM | COLO 205 > 100 µM | T47D > 10 µM | NCI-H226 > 100 µM | TK-10 > 100 µM | SK-MEL-2 48.4 µM | Hs-578T > 100 µM | NCI-H522 > 100 µM | CAKI-1 46.3 µM | MCF7 > 100 µM | UACC-257 > 100 µM | MDA-N > 100 µM | KM12 > 100 µM | SF-539 > 100 µM | IGROV-1 > 100 µM | A549 > 100 µM | OVCAR-4 > 100 µM | NCI-H23 > 100 µM | HCT-116 > 100 µM | 786-0 > 100 µM | OVCAR-5 > 100 µM | K562 > 100 µM | ACHN > 100 µM | RPMI-8226 > 100 µM | NCI-H460 > 100 µM | SW-620 > 100 µM | BT-549 > 100 µM | SF-268 52 µM | MOLT-4 > 100 µM | CCRF-CEM > 100 µM | EKVX > 100 µM | UO-31 > 100 µM | Malme-3M > 100 µM | SK-MEL-28 > 100 µM | HCC 2998 > 100 µM | OVCAR-3 > 100 µM | MDA-MB-231 > 100 µM | LOX IMVI > 100 µM | SF-295 > 100 µM
